In patent US8916204B2, “SPARC and methods of use thereof” (Abraxis BioScience, LLC, priority 2004, dated 2014):

Test system: endothelial monolayers (gp60-mediated caveolar transcytosis)
Assay: inhibition of transport of paclitaxel from ABX across endothelial monolayers
Type: in vitro ADME, human
Excerpt: Transport was dependent on albumin.

Compound | effect on transport of paclitaxel from ABX
CCN1C(=O)C=CC1=O [NEM] | inhibited
[…]-methyl cyclodextrin [BMC] | inhibited
